Reference: US20170325459A1, “BICYCLIC COMPOUNDS AS PEST CONTROL AGENTS” (Bayer CropScience Aktiengesellschaft, priority 2014, published 2017)

What was measured:
Myzus persicae = Myzus persicae spray test; assay type: in vivo; conditions: Chinese cabbage leaf discs, after 6 days; for pest or weed control at 500 g/ha: Myzus persicae, foliar, 144 h, read-out: efficacy (aphids killed)
Protocol: Myzus persicae—Spray Test Solvent: 78 parts by weight of acetone • • 1.5 parts by weight of dimethylformamide Emulsifier: alkylaryl polyglycol ether To produce a suitable active ingredient formulation, 1 part by weight of active ingredient is dissolved using the specified parts by weight of solvent and made up with water containing an emulsifier concentration of 1000 ppm until the desired concentration is attained. To produce further test concentrations, the formulation is diluted with emulsifier-containing water. Discs of Chinese cabbage leaves (Brassica pekinensis) infested by all stages of the green peach aphid (Myzus persicae) are sprayed with an active ingredient formulation of the desired concentration. After 6 days, the efficacy in % is determined. 100% means that all the aphids have been killed and 0% means that none of the aphids have been killed.

[1] = log P by HPLC (OECD Guideline 117), method [a] acidic range pH 2.7; assay type: physicochemical; conditions: for chromatographic logP: reversed-phase (RP) C18 HPLC column
Protocol: The log P values were determined in accordance with OECD Guideline 117 (EC Directive 92/69/EEC) by HPLC (high-performance liquid chromatography) using reversed-phase (RP) columns (C18), by the following methods: [a] The LC-MS determination in the acidic range is carried out at pH 2.7 with 0.1% aqueous formic acid and acetonitrile (contains 0.1% formic acid) as eluents; linear gradient from 10% acetonitrile to 95% acetonitrile. [b] LC-MS determination in the neutral range is effected at pH 7.8 with 0.001 molar aqueous ammonium hydrogencarbonate solution and acetonitrile as eluents; linear gradient from 10% acetonitrile to 95% acetonitrile. Calibration is effected using unbranched alkan-2-ones (having 3 to 16 carbon atoms) with known log P values (log P values determined on the basis of the retention times by linear interpolation between two successive alkanones).

Row | Compound | pest or weed control at 500 g/ha (Myzus persicae; application rate 500 g/ha) [%] | chromatographic logP [1] | efficacy (aphids killed) (Myzus persicae; application rate 500 g/ha) [%] | logP[a] [1] | efficacy (aphids killed) (Myzus persicae; application rate 20 g/ha) [%]
1 | O=C(NCC(F)(F)F)c1ccc2nc(-c3cccnc3)sc2c1 [compound 32, 2-(Pyridin-3-yl)-N-(2,2,2-trifluoroethyl)-1,3-benzothiazole-6-carboxamide] | 100 | 1.96 |  |  | 
2 | O=C(NCc1ccccn1)c1ccc2nc(-c3cccnc3)sc2c1 [compound 33, 2-(Pyridin-3-yl)-N-(pyridin-2-ylmethyl)-1,3-benzothiazole-6-carboxamide] | 100 | 1.15 |  |  | 
3 | COc1nn(-c2ccc3nc(-c4cccnc4)sc3c2)c(=O)n1C [compound 50] |  |  | 90 |  | 
4 | CNC(=O)c1ccc2nc(-c3cccnc3)sc2c1 [compound 57] |  |  | 100 | 1.22 | 
5 | CNC(=O)c1ccc2nc(-c3cncc(F)c3)sc2c1 [compound 58] |  |  | 100 | 1.67 | 
6 | CN(C)C(=O)c1ccc2nc(-c3cccnc3)sc2c1 [compound 59] |  |  | 100 | 1.42 | 
7 | CN(C)C(=O)c1ccc2nc(-c3cncc(F)c3)sc2c1 [compound 60] |  |  | 100 | 1.9 | 
8 | CCN(C)C(=O)c1ccc2nc(-c3cccnc3)sc2c1 [compound 61] |  |  | 100 | 1.71 | 
9 | CCN(C)C(=O)c1ccc2nc(-c3cncc(F)c3)sc2c1 [compound 62] |  |  | 100 | 2.2 | 
10 | O=C(NCC(F)(F)F)c1ccc2nc(-c3cncc(F)c3)sc2c1 [compound 64] |  |  | 90 | 2.51 | 
11 | CON(C)C(=O)c1ccc2nc(-c3cccnc3)sc2c1 [compound 65] |  |  | 100 | 1.64 | 
12 | CON(C)C(=O)c1ccc2nc(-c3cncc(F)c3)sc2c1 [compound 66] |  |  | 100 | 2.16 | 
13 | CC(F)(F)CNC(=O)c1ccc2nc(-c3cncc(F)c3)sc2c1 [compound 68] |  |  | 100 | 2.39 | 
14 | CSCCNC(=O)c1ccc2nc(-c3cccnc3)sc2c1 [compound 69, N-[2-(Methylsulphanyl)ethyl]-2-(pyridin-3-yl)-1,3-benzothiazole-6-carboxamide] | 90 | 1.83 |  |  | 
15 | CSCCNC(=O)c1ccc2nc(-c3cncc(F)c3)sc2c1 [compound 70] |  |  | 90 | 2.31 | 
16 | CS(=O)(=O)CCNC(=O)c1ccc2nc(-c3cccnc3)sc2c1 [compound 71, N-[2-(Methylsulphonyl)ethyl]-2-(pyridin-3-yl)-1,3-benzothiazole-6-carboxamide] | 100 | 1.19 |  |  | 
17 | CS(=O)(=O)CCNC(=O)c1ccc2nc(-c3cncc(F)c3)sc2c1 [compound 72] |  |  | 90 |  | 
18 | CSCCC(=O)N(C)c1ccc2nc(-c3cccnc3)sc2c1 [compound 78] |  |  | 100 | 2.08 | 
19 | CSCCC(=O)N(C)c1ccc2nc(-c3cncc(F)c3)sc2c1 [compound 79] |  |  | 100 | 2.64 | 
20 | CS(=O)(=O)CCC(=O)Nc1ccc2nc(-c3cccnc3)sc2c1 [compound 80] |  |  |  | 1.22 | 100
21 | CN(C(=O)C1CCS(=O)(=O)C1)c1ccc2nc(-c3cccnc3)sc2c1 (stereo not shown) [compound 82] |  |  | 90 | 1.49 | 
